Measured values published in ChEMBL document CHEMBL4507285, “Data for DCP probe MRL-SYKi” (2021).

Experiments:
[1] = system: Tyrosine-protein kinase ABL1 (Homo sapiens), P00519 [M351T]; conditions: Compound concentration 100.0 nM
[2] = target: Activin receptor type-2A (Homo sapiens) (UniProt P27037); conditions: Compound concentration 100.0 nM
[3] = target: RAC-alpha serine/threonine-protein kinase (Homo sapiens) (UniProt P31749); conditions: Compound concentration 100.0 nM
[4] = target: Calcium/calmodulin-dependent protein kinase type 1G (Homo sapiens) (UniProt Q96NX5); conditions: Compound concentration 100.0 nM
[5] = target: Cyclin-dependent kinase 13 (Homo sapiens) (UniProt Q14004); conditions: Compound concentration 100.0 nM
Sequence of Cyclin-dependent kinase 13 (Homo sapiens) (Q14004 whole entry, looked up): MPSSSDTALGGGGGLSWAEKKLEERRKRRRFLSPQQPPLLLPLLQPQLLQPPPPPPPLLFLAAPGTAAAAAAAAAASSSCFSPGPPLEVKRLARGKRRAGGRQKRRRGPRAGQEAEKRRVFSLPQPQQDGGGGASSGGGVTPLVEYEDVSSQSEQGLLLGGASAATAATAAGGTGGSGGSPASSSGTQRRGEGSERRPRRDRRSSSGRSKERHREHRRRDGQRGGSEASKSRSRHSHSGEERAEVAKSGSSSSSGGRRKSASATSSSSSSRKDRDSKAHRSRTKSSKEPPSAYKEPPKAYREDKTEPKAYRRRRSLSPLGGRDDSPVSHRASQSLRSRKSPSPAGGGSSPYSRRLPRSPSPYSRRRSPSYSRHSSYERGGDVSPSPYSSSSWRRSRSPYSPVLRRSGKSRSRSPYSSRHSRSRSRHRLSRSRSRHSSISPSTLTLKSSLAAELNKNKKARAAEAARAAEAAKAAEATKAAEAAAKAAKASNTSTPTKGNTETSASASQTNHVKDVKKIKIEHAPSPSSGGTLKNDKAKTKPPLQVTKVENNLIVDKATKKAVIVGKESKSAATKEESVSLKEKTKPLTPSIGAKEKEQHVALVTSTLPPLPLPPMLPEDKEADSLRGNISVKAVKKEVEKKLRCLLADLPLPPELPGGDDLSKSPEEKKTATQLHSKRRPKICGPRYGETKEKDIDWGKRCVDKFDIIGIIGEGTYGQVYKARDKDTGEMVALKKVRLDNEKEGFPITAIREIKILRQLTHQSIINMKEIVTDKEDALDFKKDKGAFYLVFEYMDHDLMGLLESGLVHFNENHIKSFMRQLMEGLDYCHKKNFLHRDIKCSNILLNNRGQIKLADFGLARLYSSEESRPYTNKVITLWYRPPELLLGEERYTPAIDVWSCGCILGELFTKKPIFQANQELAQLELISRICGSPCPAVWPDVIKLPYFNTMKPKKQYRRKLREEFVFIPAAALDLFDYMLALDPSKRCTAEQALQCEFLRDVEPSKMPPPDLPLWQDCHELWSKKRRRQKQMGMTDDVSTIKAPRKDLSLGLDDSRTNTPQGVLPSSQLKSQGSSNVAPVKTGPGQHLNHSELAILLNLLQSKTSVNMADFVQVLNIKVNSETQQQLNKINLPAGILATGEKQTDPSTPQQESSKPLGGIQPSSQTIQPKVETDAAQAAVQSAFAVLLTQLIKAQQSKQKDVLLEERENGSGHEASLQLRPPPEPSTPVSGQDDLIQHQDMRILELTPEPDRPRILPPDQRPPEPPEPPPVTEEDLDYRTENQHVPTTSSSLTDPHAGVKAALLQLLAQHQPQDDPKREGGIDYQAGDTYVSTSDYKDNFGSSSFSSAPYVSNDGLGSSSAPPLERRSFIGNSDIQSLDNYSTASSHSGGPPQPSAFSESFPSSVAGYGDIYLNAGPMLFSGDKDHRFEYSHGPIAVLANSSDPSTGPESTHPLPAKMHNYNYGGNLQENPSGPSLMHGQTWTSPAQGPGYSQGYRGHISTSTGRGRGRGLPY

[6] = target: Dual specificity protein kinase CLK2 (Homo sapiens) (UniProt P49760); conditions: Compound concentration 100.0 nM
[7] = target: Epithelial discoidin domain-containing receptor 1 (Homo sapiens) (UniProt Q08345); conditions: Compound concentration 100.0 nM
[8] = target: Ephrin type-A receptor 4 (Homo sapiens) (UniProt P54764); conditions: Compound concentration 100.0 nM
[9] = target: Ephrin type-B receptor 4 (Homo sapiens) (UniProt P54760); conditions: Compound concentration 100.0 nM
Sequence of Ephrin type-B receptor 4 (Homo sapiens) (P54760 whole entry): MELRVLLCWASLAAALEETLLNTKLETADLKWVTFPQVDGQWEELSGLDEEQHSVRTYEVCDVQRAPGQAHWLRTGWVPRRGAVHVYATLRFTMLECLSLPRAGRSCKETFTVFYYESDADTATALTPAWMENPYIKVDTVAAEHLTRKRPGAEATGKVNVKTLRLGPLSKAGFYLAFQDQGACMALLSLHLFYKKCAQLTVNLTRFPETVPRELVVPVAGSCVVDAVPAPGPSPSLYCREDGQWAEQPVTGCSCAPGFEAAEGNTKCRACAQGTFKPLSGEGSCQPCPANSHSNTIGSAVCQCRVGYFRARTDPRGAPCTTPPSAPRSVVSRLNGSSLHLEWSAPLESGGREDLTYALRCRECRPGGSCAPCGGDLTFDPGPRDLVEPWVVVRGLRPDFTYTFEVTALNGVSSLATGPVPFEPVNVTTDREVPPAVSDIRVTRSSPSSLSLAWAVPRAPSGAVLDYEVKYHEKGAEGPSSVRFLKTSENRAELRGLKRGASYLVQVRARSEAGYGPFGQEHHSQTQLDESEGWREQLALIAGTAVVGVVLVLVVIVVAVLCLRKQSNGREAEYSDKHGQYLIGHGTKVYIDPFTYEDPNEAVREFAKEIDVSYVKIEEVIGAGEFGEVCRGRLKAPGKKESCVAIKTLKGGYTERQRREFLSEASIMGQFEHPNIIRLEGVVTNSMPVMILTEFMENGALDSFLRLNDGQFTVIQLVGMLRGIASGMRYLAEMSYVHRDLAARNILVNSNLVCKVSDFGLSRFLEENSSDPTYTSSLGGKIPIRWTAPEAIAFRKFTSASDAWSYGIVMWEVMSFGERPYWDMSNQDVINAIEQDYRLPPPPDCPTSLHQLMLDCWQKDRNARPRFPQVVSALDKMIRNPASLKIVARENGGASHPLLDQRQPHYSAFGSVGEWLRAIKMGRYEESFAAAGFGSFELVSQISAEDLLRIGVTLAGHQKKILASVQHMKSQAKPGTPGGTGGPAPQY

[10] = target: Vascular endothelial growth factor receptor 1 (Homo sapiens) (UniProt P17948); conditions: Compound concentration 100.0 nM
[11] = target: Glycogen synthase kinase-3 beta (Homo sapiens) (UniProt P49841); conditions: Compound concentration 100.0 nM
[12] = target: Homeodomain-interacting protein kinase 4 (Homo sapiens) (UniProt Q8NE63); conditions: Compound concentration 100.0 nM
[13] = target: Insulin receptor (Homo sapiens) (UniProt P06213); conditions: Compound concentration 100.0 nM
[14] = target: Interleukin-1 receptor-associated kinase 4 (Homo sapiens) (UniProt Q9NWZ3); conditions: Compound concentration 100.0 nM
[15] = target: Tyrosine-protein kinase JAK1 (Homo sapiens) (UniProt P23458); conditions: Compound concentration 100.0 nM
[16] = target: Mitogen-activated protein kinase kinase kinase 2 (Homo sapiens) (UniProt Q9Y2U5); conditions: Compound concentration 100.0 nM
[17] = target: Mitogen-activated protein kinase kinase kinase 3 (Homo sapiens) (UniProt Q99759); conditions: Compound concentration 100.0 nM
[18] = target: Mitogen-activated protein kinase kinase kinase kinase 2 (Homo sapiens) (UniProt Q12851); conditions: Compound concentration 100.0 nM
[19] = target: Mitogen-activated protein kinase kinase kinase kinase 3 (Homo sapiens) (UniProt Q8IVH8); conditions: Compound concentration 100.0 nM
[20] = target: Microtubule-associated serine/threonine-protein kinase 1 (Homo sapiens) (UniProt Q9Y2H9); conditions: Compound concentration 100.0 nM
[21] = target: MAP kinase-interacting serine/threonine-protein kinase 2 (Homo sapiens) (UniProt Q9HBH9); conditions: Compound concentration 100.0 nM
[22] = target: Serine/threonine-protein kinase 26 (Homo sapiens) (UniProt Q9P289); conditions: Compound concentration 100.0 nM
[23] = target: Serine/threonine-protein kinase 38 (Homo sapiens) (UniProt Q15208); conditions: Compound concentration 100.0 nM
[24] = target: Serine/threonine-protein kinase Nek10 (Homo sapiens) (UniProt Q6ZWH5); conditions: Compound concentration 100.0 nM
[25] = target: Serine/threonine-protein kinase Nek11 (Homo sapiens) (UniProt Q8NG66); conditions: Compound concentration 100.0 nM
[26] = target: Serine/threonine-protein kinase PAK 4 (Homo sapiens) (UniProt O96013); conditions: Compound concentration 100.0 nM
[27] = target: Phosphatidylinositol 4,5-bisphosphate 3-kinase catalytic subunit alpha isoform (Homo sapiens) (UniProt P42336); conditions: Compound concentration 100.0 nM
Sequence of Phosphatidylinositol 4,5-bisphosphate 3-kinase catalytic subunit alpha isoform (Homo sapiens) (P42336 whole entry, canonical isoform): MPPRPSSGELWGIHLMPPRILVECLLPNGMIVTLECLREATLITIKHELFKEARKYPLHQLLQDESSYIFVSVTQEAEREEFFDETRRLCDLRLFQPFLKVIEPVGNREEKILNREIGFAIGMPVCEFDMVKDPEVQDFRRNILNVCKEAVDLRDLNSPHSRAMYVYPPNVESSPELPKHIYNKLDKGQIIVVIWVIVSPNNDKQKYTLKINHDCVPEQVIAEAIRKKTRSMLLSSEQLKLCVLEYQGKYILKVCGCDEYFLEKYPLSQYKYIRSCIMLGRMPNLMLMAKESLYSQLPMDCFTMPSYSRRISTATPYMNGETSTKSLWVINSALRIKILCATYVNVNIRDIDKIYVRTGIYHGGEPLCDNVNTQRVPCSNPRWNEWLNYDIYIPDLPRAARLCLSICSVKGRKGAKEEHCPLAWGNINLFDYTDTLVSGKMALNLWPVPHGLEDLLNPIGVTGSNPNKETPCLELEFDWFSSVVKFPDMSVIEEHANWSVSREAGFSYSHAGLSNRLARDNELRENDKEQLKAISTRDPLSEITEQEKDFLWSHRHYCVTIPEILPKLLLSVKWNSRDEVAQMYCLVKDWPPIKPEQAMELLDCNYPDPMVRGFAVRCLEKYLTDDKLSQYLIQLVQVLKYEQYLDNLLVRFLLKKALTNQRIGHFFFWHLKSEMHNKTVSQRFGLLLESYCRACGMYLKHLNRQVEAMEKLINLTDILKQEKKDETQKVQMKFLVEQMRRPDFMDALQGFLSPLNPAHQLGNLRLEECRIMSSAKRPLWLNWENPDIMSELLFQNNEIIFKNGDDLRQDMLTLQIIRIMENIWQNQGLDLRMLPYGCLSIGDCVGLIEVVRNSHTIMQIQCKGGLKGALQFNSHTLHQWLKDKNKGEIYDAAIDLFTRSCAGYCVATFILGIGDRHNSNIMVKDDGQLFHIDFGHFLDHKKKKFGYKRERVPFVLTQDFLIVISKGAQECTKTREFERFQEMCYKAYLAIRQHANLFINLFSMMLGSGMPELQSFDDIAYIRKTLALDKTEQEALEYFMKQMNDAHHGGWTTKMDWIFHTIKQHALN

[28] = system: Phosphatidylinositol 4,5-bisphosphate 3-kinase catalytic subunit alpha isoform (Homo sapiens), P42336 [E542K]; conditions: Compound concentration 100.0 nM
Sequence of Phosphatidylinositol 4,5-bisphosphate 3-kinase catalytic subunit alpha isoform (Homo sapiens), P42336 [E542K] (P42336 whole entry E542K, canonical isoform): as the sequence (P42336 whole entry, canonical isoform) above, with E542K counted along it

[29] = system: Phosphatidylinositol 4,5-bisphosphate 3-kinase catalytic subunit alpha isoform (Homo sapiens), P42336 [H1047Y]; conditions: Compound concentration 100.0 nM
Sequence of Phosphatidylinositol 4,5-bisphosphate 3-kinase catalytic subunit alpha isoform (Homo sapiens), P42336 [H1047Y] (P42336 whole entry H1047Y, canonical isoform): as the sequence (P42336 whole entry, canonical isoform) above, with H1047Y counted along it

[30] = target: Phosphatidylinositol 4,5-bisphosphate 3-kinase catalytic subunit beta isoform (Homo sapiens) (UniProt P42338); conditions: Compound concentration 100.0 nM
[31] = target: Phosphatidylinositol 4,5-bisphosphate 3-kinase catalytic subunit delta isoform (Homo sapiens) (UniProt O00329); conditions: Compound concentration 100.0 nM
[32] = target: Phosphatidylinositol 4,5-bisphosphate 3-kinase catalytic subunit gamma isoform (Homo sapiens) (UniProt P48736); conditions: Compound concentration 100.0 nM
[33] = target: Protein kinase C epsilon type (Homo sapiens) (UniProt Q02156); conditions: Compound concentration 100.0 nM
[34] = target: Protein kinase C theta type (Homo sapiens) (UniProt Q04759); conditions: Compound concentration 100.0 nM
[35] = target: Ribosomal protein S6 kinase alpha-3 (Homo sapiens) (UniProt P51812); conditions: Compound concentration 100.0 nM
Sequence of Ribosomal protein S6 kinase alpha-3 (Homo sapiens) (P51812 whole entry): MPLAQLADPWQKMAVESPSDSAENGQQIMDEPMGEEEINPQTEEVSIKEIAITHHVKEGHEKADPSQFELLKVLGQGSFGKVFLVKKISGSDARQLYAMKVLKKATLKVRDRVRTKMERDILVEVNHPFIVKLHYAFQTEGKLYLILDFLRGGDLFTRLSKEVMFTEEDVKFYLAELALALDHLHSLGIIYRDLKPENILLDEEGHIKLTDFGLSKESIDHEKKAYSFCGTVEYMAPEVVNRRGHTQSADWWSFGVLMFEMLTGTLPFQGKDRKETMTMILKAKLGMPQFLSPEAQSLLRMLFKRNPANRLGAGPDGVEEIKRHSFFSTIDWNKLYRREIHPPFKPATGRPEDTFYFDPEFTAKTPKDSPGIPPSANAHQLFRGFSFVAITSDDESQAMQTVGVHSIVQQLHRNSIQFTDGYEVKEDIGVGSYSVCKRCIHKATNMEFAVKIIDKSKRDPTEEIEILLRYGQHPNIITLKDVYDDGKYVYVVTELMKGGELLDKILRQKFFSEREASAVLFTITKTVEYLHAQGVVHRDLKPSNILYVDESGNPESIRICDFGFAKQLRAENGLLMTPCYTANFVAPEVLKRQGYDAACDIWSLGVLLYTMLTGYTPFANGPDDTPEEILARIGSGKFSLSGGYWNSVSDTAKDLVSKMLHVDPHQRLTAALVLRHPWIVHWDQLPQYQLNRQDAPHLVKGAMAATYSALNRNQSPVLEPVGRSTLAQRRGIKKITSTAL

[36] = target: Serine/threonine-protein kinase 36 (Homo sapiens) (UniProt Q9NRP7); conditions: Compound concentration 100.0 nM
[37] = target: TRAF2 and NCK-interacting protein kinase (Homo sapiens) (UniProt Q9UKE5); conditions: Compound concentration 100.0 nM
[38] = target: Serine/threonine-protein kinase TNNI3K (Homo sapiens) (UniProt Q59H18); conditions: Compound concentration 100.0 nM
[39] = target: Wee1-like protein kinase (Homo sapiens) (UniProt P30291); conditions: Compound concentration 100.0 nM
[40] = target: Serine/threonine-protein kinase WNK4 (Homo sapiens) (UniProt Q96J92); conditions: Compound concentration 100.0 nM
[41] = target: Serine/threonine-protein kinase 32A (Homo sapiens) (UniProt Q8WU08); conditions: Compound concentration 100.0 nM
[42] = target: D(1A) dopamine receptor (Homo sapiens) (UniProt P21728); conditions: Compound concentration 10.0 uM
Sequence of D(1A) dopamine receptor (Homo sapiens) (P21728 whole entry): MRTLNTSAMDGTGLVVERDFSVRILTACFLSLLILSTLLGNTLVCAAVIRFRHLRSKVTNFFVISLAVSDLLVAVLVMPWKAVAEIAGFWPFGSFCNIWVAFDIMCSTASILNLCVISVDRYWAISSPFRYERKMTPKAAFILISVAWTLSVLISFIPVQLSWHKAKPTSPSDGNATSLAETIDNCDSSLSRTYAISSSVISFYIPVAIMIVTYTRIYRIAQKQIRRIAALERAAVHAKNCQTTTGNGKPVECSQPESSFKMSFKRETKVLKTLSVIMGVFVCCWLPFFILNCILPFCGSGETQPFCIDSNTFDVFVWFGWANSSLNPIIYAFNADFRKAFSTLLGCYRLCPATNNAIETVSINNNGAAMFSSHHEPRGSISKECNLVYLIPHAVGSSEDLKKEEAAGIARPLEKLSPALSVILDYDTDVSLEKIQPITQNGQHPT

[43] = target: Sodium-dependent dopamine transporter (Homo sapiens) (UniProt Q01959); conditions: Compound concentration 10.0 uM
[44] = target: Histamine H2 receptor (Homo sapiens) (UniProt P25021); conditions: Compound concentration 10.0 uM
[45] = target: Beta-2 adrenergic receptor (Homo sapiens) (UniProt P07550); conditions: Compound concentration 10.0 uM

## Cc1ccc(-c2cnc([C@@]3(O)CC[C@H](C(=O)O)C(C)(C)C3)s2)cc1Nc1cccc(C(F)(F)F)n1 [MRL-SYKi-NC]
[1]
  residual activity: 87%
[2]
  residual activity: 96.9%
[3]
  residual activity: 92.3%
[4]
  residual activity: 90.7%
[5]
  residual activity: 45.7%
[6]
  residual activity: 100%
[7]
  residual activity: 100%
[8]
  residual activity: 100%
[9]
  residual activity: 100%
[10]
  residual activity: 97.7%
[11]
  residual activity: 95.6%
[12]
  residual activity: 97.7%
[13]
  residual activity: 78.7%
[14]
  residual activity: 48.8%
[15]
  residual activity: 92.6%
[16]
  residual activity: 100%
[17]
  residual activity: 82.5%
[18]
  residual activity: 100%
[19]
  residual activity: 100%
[20]
  residual activity: 100%
[21]
  residual activity: 100%
[22]
  residual activity: 100%
[23]
  residual activity: 87.9%
[24]
  residual activity: 97.3%
[25]
  residual activity: 93%
[26]
  residual activity: 100%
[27]
  residual activity: 86.9%
[28]
  residual activity: 87.4%
[29]
  residual activity: 81.3%
[30]
  residual activity: 77.1%
[31]
  residual activity: 98.8%
[32]
  residual activity: 85.4%
[33]
  residual activity: 100%
[34]
  residual activity: 100%
[35]
  residual activity: 73.8%
[36]
  residual activity: 95.5%
[37]
  residual activity: 75.8%
[38]
  residual activity: 100%
[39]
  residual activity: 81.4%
[40]
  residual activity: 31.8%
[41]
  residual activity: 89.7%
[42]
  inhibition: 6.26%
[43]
  inhibition: 71%
[44]
  inhibition: 8.65%
[45]
  inhibition: 1.6%

## Cc1cc(Nc2nccc(C)n2)cc(-c2cnc([C@@]3(O)CC[C@H](C(=O)O)C(C)(C)C3)s2)c1 [MRL-SYKi]
[1]
  residual activity: 78.3%
[2]
  residual activity: 85.6%
[3]
  residual activity: 100%
[4]
  residual activity: 100%
[5]
  residual activity: 89.5%
[6]
  residual activity: 98%
[7]
  residual activity: 84.5%
[8]
  residual activity: 78.6%
[9]
  residual activity: 100%
[10]
  residual activity: 100%
[11]
  residual activity: 100%
[12]
  residual activity: 75.6%
[13]
  residual activity: 100%
[14]
  residual activity: 100%
[15]
  residual activity: 31.8%
[16]
  residual activity: 100%
[17]
  residual activity: 100%
[18]
  residual activity: 100%
[19]
  residual activity: 100%
[20]
  residual activity: 100%
[21]
  residual activity: 74.7%
[22]
  residual activity: 100%
[23]
  residual activity: 80.6%
[24]
  residual activity: 53.1%
[25]
  residual activity: 61.2%
[26]
  residual activity: 89.8%
[27]
  residual activity: 100%
[28]
  residual activity: 66.5%
[29]
  residual activity: 14.7%
[30]
  residual activity: 100%
[31]
  residual activity: 100%
[32]
  residual activity: 100%
[33]
  residual activity: 100%
[34]
  residual activity: 39.9%
[35]
  residual activity: 83.4%
[36]
  residual activity: 94.5%
[37]
  residual activity: 100%
[38]
  residual activity: 100%
[39]
  residual activity: 93.1%
[40]
  residual activity: 100%
[41]
  residual activity: 100%
[42]
  inhibition: -7.4%
[43]
  inhibition: 39.3%
[44]
  inhibition: 3.06%
[45]
  inhibition: 5.53%
